Laboratory results from US20070042947A1, “Agents for preventing and/or treating uppper digestive tract disorders” (Takeda Pharmaceutical Company Limited, priority 2003, published 2007).

Tests used:
pylorus ligated rats [1] = experiment: Amount of gastrin secretion (blood gastrin level, RIA) in pylorus ligated rats; format: in vivo, rat; conditions: 2 mg/kg (2000 μg/kg group) intraperitoneally; blood 3 hours after pylorus ligature; vs saline group, 8 rats
Protocol: After Wistar male rats (340-360 g) were fasted for 16 hours with water given ad libitum as in EXAMPLE 2 above, the animal was exposed at laparotomy under ether anesthesia and submitted to the pylorus ligature assay to close the abdomen. After hNPW23 was dissolved in saline (2 mg/ml), the solution was intraperitoneally injected (2 mg/kg). The control group was given saline. Test was performed with 8 rats in each group. Three hours after the pylorus ligature, the rat's abdomen was opened under anesthesia with Nembutal (40 mg/kg) and blood was collected through the abdominal aorta. The blood was placed in a blood tube of 7 ml (Terumo, containing EDTA), centrifuged (3000 rpm×10 min.) and stored at −40° C in lyophilized state until assay. Gastrin level in blood was assayed with Gastrin RIA KIT II (ABBOTT JAPAN). The F-assay was conducted on mean measurement values.

Wistar male rats = experiment: Gastric acid secretion in anesthetized rat by intravenous injection of hNPW23 (stomach perfusion, NaOH titration); format: in vivo; conditions: 80 μM in saline, 1 ml/h for 30 minutes through the femoral vein; mean±SE, 8 rats; P 0.01 or less vs control
Protocol: After Wistar male rats (Nippon Charles River, weighing 320-360 g) were fasted for 16 hours with water given ad libitum, the animal was injected intraperitoneally with ethyl carbamate (Wako Pure Chemical) (1.0 g/ml/kg) and firmly secured to the operating table under anesthesia to perform laparotomy. Stomach catheter (Medtop X2-50, 3.5 mm in outer diameter and […] in inner diameter) was inserted into the stomach (2 cm) through an incision in the duodenum. After ligature at the pyloric canal, the right femoral vein was isolated to perform venous cannulation. The stomach was irrigated with distilled water (Otsuka Pharmaceutical Co., Ltd.) warmed at 37° C. and allowed to stand for about an hour. hNPW23 was dissolved in saline (Otsuka Pharmaceutical Co., Ltd.) to become 80 μM. The control group was given saline. […] Gastric acid output was determined as follows. […] After 30 μl of Bromthymol Blue indicator solution (BTB, Wako Pure Chemical) was added to each gastric juice collected, the mixture was titrated with 0.1N NaOH solution and the consumed amount of NaOH required to reach the equivalent point (the amount consumed) was determined to calculate the gastric acid output. The gastric acid output before administration of hNPW23 was measured and T-assay was conducted on a percentage (%) of changes in gastric acid outputs before and after administration. […]

pylorus ligated rats [2] = experiment: Gastric fluid volume, pH, gastric acidity and acid output in pylorus ligated rats; format: in vivo, rat; conditions: 2 mg/kg intraperitoneally; 3 hours after pylorus ligature; mean ± SE, 8 rats
Protocol: After Wistar male rats (340-360 g) were fasted for 16 hours with water given ad libitum, the animal was exposed at laparotomy under ether anesthesia and submitted to the pylorus ligature assay to close the abdomen. After hNPW23 was dissolved in saline (2 mg/ml), the solution was intraperitoneally injected (2 mg/kg). The control group was given saline. Test was performed with 8 rats in each group. Three hours after the pylorus ligature, the rat's abdomen was opened under anesthesia with Nembutal (40 mg/kg, Dainippon Pharmaceutical). After ligation of the cardia, the stomach was removed. Gastric contents were collected and centrifuged (2500 rpm×10 min.). Using the supernatant, gastric fluid volume (ml), pH intragastric pH, gastric acidity (mEq/l) and total acid output (μEq/kg/h) were measured.
To 1 ml of gastric juice, 30 μl of BTB (Wako Pure Chemical) solution was added and […] NaOH solution was dropwise added to the mixture. The consumed amount of NaOH required to reach the equivalent point (pH 7.0) was measured to calculate the gastric acidity and total acid output.
The pH of gastric juice was measured using Twin pH meter B-212 (Horiba, Ltd.).
The respective measurements values were calculated according to the equation below and T-assay was conducted.
Gastric acidity (mEq/l)=0.2N NaOH×consumed amount (μl)/gastric juice (1000 μl)
Total acid output (μEq/kg/h)=gastric acidity x gastric fluid volume/weight/time

Substance: hNPW23: human GPR8 ligand peptide (hNPW23), amino acid sequence SEQ ID NO: 1; Neuropeptide W (WYKHVASPRYHTVGRAAGLLMGL; listed as Homo sapiens)
- gastrin level in blood (pylorus ligated rats [1]): increased significantly
- changes in gastric acid outputs (gastric acid output after administration / before administration x 100) (Wistar male rats): 145.6±8.5%
- Gastric acidity (pylorus ligated rats [2]): 96.0 ± 4.2 mEq/l
- Gastric fluid volume (pylorus ligated rats [2]): 7.9 ± 1.2 mL
- Intragastric pH (pylorus ligated rats [2]): 0.83 ± 0.03
- Total acid output (pylorus ligated rats [2]): 747.4 ± 121.5 μEq/kg/h
